Test results from patent publication US5977065A, “Bacterial nitroreductase for the reduction of CB1954 and analogues thereof to a cytotoxic form” (Cancer Research Campaign Technology Limited, priority 1991, dated 1999).
*1 amine or outer side, *2 acyl side, *3 side chain or, on linkers, in order; H or OH if unused. Where a SMILES comes first, the peptide text is derived from it. Bridges are numbered along the chain shown (N, C = ends). Roman numbers before positions name the chains, in order. [ ]: non-standard residue; d: D form. Actinocin(9to1) = Cc1c2oc3c(C)ccc(C(=O)[*:1])c3nc-2c(C(=O)[*:2])c(N)c1=O; NMeV = CN[C@H](C(=O)O)C(C)C; Sar = CNCC(=O)O

Tests used:
E. coli nitroreductase [1] = target: T1, E. coli nitroreductase (Escherichia coli, UniProt P38489); assay: Substrate specificity: relative rate of NADH oxidation by HPLC (Table 5); type: biochemical; settings: relative to CB 1954; 37° C. in air, NADH 500 μM, substrate 100 μM
T1 construct: endogenous in cells; host or cells: E. coli B cell paste; endogenous enzyme purified by Phenyl-Sepharose and Q-Sepharose chromatography, not recombinant
Procedure: The ability of the E. coli nitroreductase of the invention to reduce nitro-compounds other than CB 1954 was determined by HPLC by following the decrease in the peak area of NADH resulting from its oxidation. The experiments were carried out as above but the aliquots were injected onto a Partisphere SAX (110×4.7 mm) HPLC column and eluted isocratically (1 ml/min) with 75 mM NaH2 PO4.
The relative rates of reduction of various nitrobenzamides and
nitrobenzenes with E. coli nitroreductase enzyme. Reduction
rates were determined by the resulting oxidation of NADH. All
reactions were carried out at 37° C. in air, with NADH (500
electron donor, at an initial substrate concentration of 100 μM.

V79 cells [2] = assay: Survival (colony forming ability) of V79 cells with enzyme-activated prodrugs (Table 8); type: cell-based; settings: 50 μM prodrug alone
Procedure: (§1) Generation of cytotoxicity by the action of the E. coli nitroreductase of Example 1 upon the prodrugs 4-[bis(2-chloroethyl)amino]phenylcarbamic acid 4'-nitrobenzyl ester (I where R^1 NH2 =III) and N-4-nitrobenzyloxy-carbonyl-actinomycin D (V) are shown in Table 8.
(§2) The effect of enzyme-activated prodrugs on the survival of V79
(§3) cells. 1 ml volumes of V79 cells (2 × 10^5 /ml) were incubated
(§4) with prodrug, 500 μM NADH, and 10 μg/ml enzyme. After a 2 hour
(§5) incubation at 37° C., the cells were harvested and assayed for
(§6) their colony forming ability, and the supernatant assayed for
(§7) the concentration of remaining prodrug by HPLC.

E. coli nitroreductase [3] = target: T1, E. coli nitroreductase; assay: % drug reduction in the V79 incubations, remaining prodrug by HPLC (Table 8); type: biochemical
Procedure: as §1, §2, §3, §4, §5, §6, §7

[4] = In vivo toxicity of prodrug in mice; settings: for deaths: dose 10 mg/kg i.p., groups of 3 mice, 10 mg/kg
Procedure: The actinomycin D prodrug (AMDPD) of formula V was tested for toxicity in mice. Groups of 3 mice were given 1, 10 or 100 mg/kg body weight i.p. of AMPD, and two further groups of 3 mice were given 1 and 10 mg/kg body weight i.p. of actinomycin D (AMD) dissolved in arachis oil. A further group of 3 mice were untreated, and a final group of 3 mice were given arachis oil i.p. only.
The body weight of the mice were monitored over 9 days. All mice treated with 10 mg/kg of AMD were dead by day 1. […] In practice, the toxicity of AMDPD is likely to be even lower, since the preparation of AMDPD used contains about 1% unconverted AMD.

E. coli B nitroreductase = target: T2, E. coli B nitroreductase (Escherichia coli, UniProt P38489); assay: Enzyme kinetic and inhibition studies; type: biochemical
T2 construct: endogenous in cells; host or cells: E. coli B cell paste; endogenous enzyme purified by Phenyl-Sepharose and Q-Sepharose chromatography, not recombinant
Procedure: Protein concentration was determined using the a conventional protein assay (Bio-Rad) calibrated against bovine serum albumin.

V79 cells [5] = assay: Survival (colony-forming ability) of V79 cells treated with CB 1954 in the presence of E. coli B nitroreductase (Table 4); type: cell-based, Hamster; settings: nitroreductase 2 μg/ml
Procedure: E. coli B nitroreductase. All treatments were for 2 hours at 37°
cells were then plated out for their resulting colony-forming ability.
nitroreductase concentration was 2 μg/ml and NADH was used as a […]

In the case of `NC(=O)c1cc(Cl)c([N+](=O)[O-])cc1[N+](=O)[O-]` [5-chloro-2,4-dinitrobenzamide], the “RELATIVE RATE OF NADH OXIDATION NR” value (E. coli nitroreductase [1]) is reported as 22.4.

For `O=C(Nc1ccc(N(CCCl)CCCl)cc1)OCc1ccc([N+](=O)[O-])cc1` [I where R^1 NH2 = III, 4-[Bis(2-chloroethyl)amino]phenylcarbamic acid 4'-nitrobenzyl ester], the “% SURVIVAL” value (V79 cells [2]) was 27.1%, the “% DRUG REDUCTION” value (E. coli nitroreductase [3]; 50 μM prodrug alone) was < 1.0% and the “% DRUG REDUCTION” value (E. coli nitroreductase [3]; NR 10 μg/ml + 50 μM prodrug + 500 μM NADH) was 30%.

With `Cc1c2oc3c(C)ccc(C(=O)N[C@@H]4C(=O)N[C@H](C(C)C)C(=O)N5CCC[C@H]5C(=O)N(C)CC(=O)N(C)[C@@H](C(C)C)C(=O)O[C@@H]4C)c3nc-2c(C(=O)N[C@@H]2C(=O)N[C@H](C(C)C)C(=O)N3CCC[C@H]3C(=O)N(C)CC(=O)N(C)[C@@H](C(C)C)C(=O)O[C@@H]2C)c(N)c1=O` [AMD, actinomycin D] (I: T[dV]P[Sar][NMeV] / II: T[dV]P[Sar][NMeV]; ester I:1-I:C, II:1-II:C; linker I:N-II:N via Actinocin(9to1)) the “Weight as % of Day 0, Day 2” value ([4]; dose 1.0 mg/kg i.p., mice) was 98.6%, the “Weight as % of Day 0, Day 3” value ([4]; dose 1.0 mg/kg i.p., mice) was 95% and the “Weight as % of Day 0, Day 7” value ([4]; dose 1.0 mg/kg i.p., mice) was 101.6%. For the same molecule, the “Weight as % of Day 0, Day 9” value ([4]; dose 1.0 mg/kg i.p., mice) was 103%, the deaths [4] was “dead by day 1” and the deaths ([4]; listed as Active Drug) was “All dead on day 1”.

For `NC(=O)c1ccc([N+](=O)[O-])cc1` [4-nitrobenzamide], the “RELATIVE RATE OF NADH OXIDATION NR” value (E. coli nitroreductase [1]) was 5.1.

For `NC(=O)NN=Cc1ccc([N+](=O)[O-])o1` [5-nitro-2-furaldehydesemicarbazone], the “RELATIVE RATE OF NADH OXIDATION NR” value (E. coli nitroreductase [1]) was 3.6.

For `O=[N+]([O-])c1ccc(O)c([N+](=O)[O-])c1` [2,4-dinitrophenol], the “RELATIVE RATE OF NADH OXIDATION NR” value (E. coli nitroreductase [1]) was < 0.01.

With `CC1=CC(=O)c2ccccc2C1=O` [MENADIONE, menadione] the “Km of nitroreductase for menadione higher than Walker enzyme” value (E. coli B nitroreductase) was 60 fold.

In the case of `NC(=O)c1cc(N2CC2)c([N+](=O)[O-])cc1N` [2-amino-5-(aziridin-1-yl)-4-nitrobenzamide], the “RELATIVE RATE OF NADH OXIDATION NR” value (E. coli nitroreductase [1]) is reported as < 0.01.

For `NC(=O)c1ccccc1[N+](=O)[O-]` [2-nitrobenzamide], the “RELATIVE RATE OF NADH OXIDATION NR” value (E. coli nitroreductase [1]) was 0.06.

With `NC(=O)c1cc([N+](=O)[O-])cc([N+](=O)[O-])c1` [3,5-dinitrobenzamide] the “RELATIVE RATE OF NADH OXIDATION NR” value (E. coli nitroreductase [1]) was 75.5.

In the case of `NC(=O)c1cccc([N+](=O)[O-])c1` [3-nitrobenzamide], the “RELATIVE RATE OF NADH OXIDATION NR” value (E. coli nitroreductase [1]) is reported as 1.8.

For `NC(=O)c1cc(NCCO)c([N+](=O)[O-])cc1[N+](=O)[O-]` [2,4-dinitro-5-(2-hydroxyethylamino)benzamide], the “RELATIVE RATE OF NADH OXIDATION NR” value (E. coli nitroreductase [1]) was 0.04.

B1: Nitroreductase (NR): flavoprotein nitroreductase isolated from E. coli B, molecular weight 24 kDa, FMN coenzyme (protein, UniProt P38489 1-217, looked up)
Oxygen-insensitive NAD(P)H …: MDIISVALKRHSTKAFDASKKLTPEQAEQIKTLLQYSPSSTNSQPWHFIVASTEEGKARVAKSAAGNYVFNERKMLDASHVVVFCAKTAMDDVWLKLVVDQEDADGRFATPEAKAANDKGRKFFADMHRKDLHDDAEWMAKQVYLNVGNFLLGVAALGLDAVPIEGFDAAILDAEFGLKEKGYTSLVVVPVGHHSVEDFNATLPKSRLPQNITLTEV
With B1 the “% SURVIVAL” value (V79 cells [5]) was 94%.
